Where “and” joins values, the source holds several entries; their conditions need not be identical. Equal entries are not always repeated.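 The compound was tested at five concentrations on cells cultured in 96-well plates, with a 48-hour exposure period. Abbreviation: GI50, concentration required for 50% inhibition of growth. The concentration for full growth arrest is given as TGI.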
Assays:
Test in all cases: DTP human tumour cell line panel, 48 h
[1] = system: RPMI-8226 leukemia
[2] = system: KM12 colon
[3] = system: SF-295 CNS
[4] = system: SF-268 CNS
[5] = system: NCI-H23 lung
[6] = system: COLO 205 colon
[7] = system: ACHN renal
[8] = system: MCF7 breast
[9] = system: SK-OV-3 ovarian
[10] = system: SK-MEL-5 melanoma

Row | SMILES | TGI [1] | TGI [2] | TGI [3] | TGI [4] | TGI [5] | TGI [6] | TGI [7] | TGI [8] | TGI [9] | GI50 [1] | GI50 [2] | GI50 [3] | GI50 [4] | GI50 [5] | GI50 [6] | GI50 [7] | GI50 [8] | GI50 [10] | TGI [10] | GI50 [9]
1 | O=C1NC(=O)C2(CCC(O)C2)c2cc[n+]([O-])cc21 (stereo unspecified) | > 100 µM | > 100 µM | > 100 µM | > 100 µM | > 100 µM | > 100 µM | > 100 µM | > 100 µM | > 100 µM | – | – | – | – | – | – | – | – | – | – | –
2 | COC(=O)c1c2c(c(C)[n+]([O-])c1C)C(=O)C(NCc1cccc(OC)c1)=CC2=O | 15.9 µM | 11.6 µM | 6.13 µM | 11.7 µM | 4.41 µM | 2.86 µM | 10.2 µM | 3.63 µM | 13.6 µM | 2.93 µM | 2.48 µM | 2.05 µM | 2.86 µM | 1.84 µM | 1.1 µM | 2.84 µM | 1.65 µM | 1.2 µM | 2.47 µM | 3.53 µM
3 | Cc1ccc(C2SCc3nc4ccc(C(=O)c5ccccc5)cc4n32)cc1 (stereo unspecified) | > 95 µM | 35.2 µM | 33 µM | 77.7 µM | > 62 µM | > 100 µM | > 56.9 µM | > 76.7 µM | 47.8 µM | 10.3 µM | 6.49 µM | 8.21 µM | 22.4 µM | 14.4 µM | 6.18 µM | 14.1 µM | 11.9 µM | 1.33 µM | 7.48 µM | 20.5 µM
4 | O=C(c1ccco1)c1c(C(F)(F)F)nc2cc(C(F)(F)F)ccc2[n+]1[O-] | > 100 µM | > 100 µM | 40.4 µM | 81.3 µM | > 100 µM | > 100 µM | > 100 µM | > 100 µM | 64.6 µM | 34.4 µM | > 100 µM | 17.5 µM | 24.6 µM | 48.4 µM | > 100 µM | 82.1 µM | 35.3 µM | > 100 µM | > 100 µM | 20.3 µM
5 | CCOC(=O)CNC(=O)CCCn1c(=O)c2c3ccccc3n(C)c2n2nnc(-c3ccccc3)c12 | 33.9 µM | > 50 µM | 17.4 µM | > 50 µM | > 50 µM | > 50 µM | 33.7 µM | > 50 µM | 44 µM | 10.7 µM | > 50 µM | 4.83 µM | 14.2 µM | 11.8 µM | > 50 µM | 9.24 µM | 31.3 µM | – | – | 6.7 µM
6 | C=CC[Se]C(=O)Cc1c(C)n(C(=O)c2ccc(Cl)cc2)c2ccc(OC)cc12 | 5.86 µM | 3.42 µM | 1.45 µM | 5.7 µM | 3.87 µM | 4.38 µM | 3.25 µM | 4.17 µM | 3.1 µM | 2.28 µM | 1.53 µM | 0.334 µM | 2.23 µM | 1.91 µM | 2.14 µM | 1.79 µM | 1.81 µM | 1.73 µM | 3.13 µM | 1.63 µM
7 | CC[C@@H](C)[C@H]([C@H](CC(=O)N1CCC[C@@H]1[C@@H](OC)[C@H](C)C(=O)N[C@H](Cc1ccccc1)c1nccs1)OC)N(C)C(=O)[C@H](NC(=O)[C@@H](C(C)C)N(C)C)C(C)C | – | – | – | – | 0.00554 µM and < 0.215 µM | 0.000302 µM | > 100 µM | > 100 µM | – | 0.000425 µM | 0.000425 µM | – | – | – | – | – | – | – | 0.000656 µM | 7.9e-05 µM
8 | COc1cc(-c2nn(C(=O)NS(=O)(=O)c3ccc(C)cc3)cc2-c2ccncc2)ccc1Cl | > 100 µM | 43.5 µM | – | > 100 µM | 28.9 µM | 15.4 µM | 36.1 µM | 26.2 µM | 13.6 µM | 15.5 µM | 11 µM | – | 4.32 µM | 5.27 µM | 3.89 µM | 3.48 µM | 5.76 µM | 4.58 µM | 17.1 µM | 3.38 µM
9 | COc1ccc2[nH]c(-c3cccc(N(C)C)c3)cc(=O)c2c1 | 0.844 µM | – | – | 33.7 µM | – | – | > 100 µM | > 100 µM | 59.2 µM | 0.443 µM | 0.393 µM | 3.71 µM | 0.657 µM | 0.664 µM | 0.379 µM | – | – | 0.305 µM | – | 0.573 µM
10 | Cc1ccccc1-n1c(/C=C\c2ccccn2)nc2ccccc2c1=O | 15 µM | 27.9 µM | 47.3 µM | > 100 µM | 57.4 µM | 28.5 µM | > 100 µM | 58.7 µM | > 100 µM | 2.51 µM | 11.1 µM | 6.76 µM | 15.2 µM | 6.06 µM | 9.65 µM | 12.8 µM | 10.1 µM | 9.61 µM | 22.6 µM | 35.3 µM
11 | CC1CCCN(CC(O)CN2CCCc3ccccc32)C1 (stereo unspecified) | > 100 µM | > 100 µM | > 100 µM | > 100 µM | > 100 µM | > 100 µM | > 100 µM | > 100 µM | > 100 µM | – | – | – | – | – | – | – | – | – | > 100 µM | –
12 | COc1cc(-c2nc(SCC(=O)Nc3ccc(C(C)=O)cc3)[nH]c(=O)c2C#N)cc(OC)c1OC | > 100 µM | > 100 µM | > 100 µM | > 100 µM | > 100 µM | > 100 µM | > 100 µM | > 100 µM | > 100 µM | 29.9 µM | 63.6 µM | 43 µM | 68.7 µM | > 100 µM | > 100 µM | 85 µM | 40 µM | 31.9 µM | > 100 µM | 38.6 µM
13 | C=C1C(=O)O[C@H]2[C@H]1[C@H](OC(=O)/C(C)=C\C)C[C@]1(CO1)[C@@H]1[C@H](OC(C)=O)C=C(C)[C@]21O | 15.2 µM | 41.4 µM | > 100 µM | 45.5 µM | 53.2 µM | 19.4 µM | 24.5 µM | 29.1 µM | > 100 µM | – | – | – | – | – | – | – | – | – | 37.2 µM | –
14 | Cc1c2ncccc2nc2[nH]c3ccc(OCCN(C)C)cc3c12 | 5.91 µM | 13.6 µM | 13 µM | 15.4 µM | 21 µM | 7.94 µM | 7.95 µM | 6.04 µM | 17.5 µM | 2.13 µM | 1.93 µM | 1.59 µM | 2.16 µM | 2.54 µM | 1.5 µM | 0.75 µM | 0.305 µM | 9.77 µM | 21.9 µM | 2.3 µM
